{
  "source": "patent US8829185B2",
  "about": "(Bayer HealthCare LLC, priority 2005, dated 2014)",
  "data": [
    {"target": "T1, FGFR1-GST (Homo sapiens, UniProt P11362)", "T1 construct": "GST; made in house", "T1 sequence (P11362 22-822)": "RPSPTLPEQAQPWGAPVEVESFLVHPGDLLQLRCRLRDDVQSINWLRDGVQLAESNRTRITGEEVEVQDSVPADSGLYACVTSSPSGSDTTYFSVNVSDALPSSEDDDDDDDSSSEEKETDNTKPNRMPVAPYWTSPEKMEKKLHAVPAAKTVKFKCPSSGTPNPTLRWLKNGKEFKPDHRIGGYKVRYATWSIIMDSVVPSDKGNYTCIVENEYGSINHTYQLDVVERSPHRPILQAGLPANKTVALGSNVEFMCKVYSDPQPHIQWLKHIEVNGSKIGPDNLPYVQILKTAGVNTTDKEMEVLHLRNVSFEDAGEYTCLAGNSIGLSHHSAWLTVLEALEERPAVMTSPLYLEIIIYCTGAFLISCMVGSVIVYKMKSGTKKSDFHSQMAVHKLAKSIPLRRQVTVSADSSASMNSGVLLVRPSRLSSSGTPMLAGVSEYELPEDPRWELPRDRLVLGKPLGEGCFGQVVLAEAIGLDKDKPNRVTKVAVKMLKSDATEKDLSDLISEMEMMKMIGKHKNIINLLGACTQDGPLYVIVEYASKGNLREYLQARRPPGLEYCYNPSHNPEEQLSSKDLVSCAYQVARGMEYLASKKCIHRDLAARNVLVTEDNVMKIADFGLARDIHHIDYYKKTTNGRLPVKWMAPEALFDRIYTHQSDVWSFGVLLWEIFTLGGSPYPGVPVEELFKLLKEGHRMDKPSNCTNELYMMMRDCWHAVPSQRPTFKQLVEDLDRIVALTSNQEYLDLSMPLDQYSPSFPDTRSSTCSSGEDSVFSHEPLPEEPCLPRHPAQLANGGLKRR", "test": "FGFR-1 TR-FRET biochemical assay", "conditions": "bounds given in nM", "protocol": "(§1) FGFR-1 TR-FRET Biochemical Assay\n(§2) The FGFR-1 Assay was performed on half well 96-well opaque plates (Costar 3915) in a LANCE format. LANCE is a homogenous time resolved fluormetry based application available through Perkin Elmer. For this assay, 50 uL reactions were set up using: 0.6 uM ATP (Sigma), 25 nM poly GT-biotin (CIS BIO International), 2 nM Eu-labelled phospho-Tyr Ab (PY20 PerkinElmer), 10 nM Streptavidin-APC (Perkin Elmer), 5 nM FGFR1-GST (generated by DRT, Bayer Healthcare), 1% DMSO, 50 mM HEPES pH 7.5, 10 mM MgCl2, 0.1 mM EDTA, 0.015% Brij, 0.1 mg/ml BSA, 0.1% B-mercaptoethanol. All reactions were initiated with the addition of enzyme and were left to incubate for one hour at room temperature. Time-resolved fluorescence was then read on a Perkin Elmer VictorV Multilabel counter. The reading protocol uses an excitation wavelength at 340 nm and emission reads at both 615 and 665 nm. Signal was calculated as a ratio: (Fluorescence at 665 nm/Fluorescence at […])*10000 for each well. The background control used for this assay is the signal produced with all assay components excluding ATP. For IC50 generation, compounds were added prior to the enzyme initiation. A 50-fold stock plate was made with compounds serially diluted 1:5 in a 50% DMSO/50% dH2O solution. A 1 μL addition of the stock to the assay wells gave final compound concentrations ranging from 10 μM −0.128 nM in 1% DMSO. The data were expressed as percent inhibition: % inhibition=100−((Signal with inhibitor-background)/(Signal without inhibitor−background))*100.", "units": {"IC50": "nM"}, "values": [
      {"compound": "COCc1c(-c2ccc(NC(=O)Nc3cc(C(C)(C)C)ccn3)c(F)c2)c2c(N)ncnn2c1CN1CCOCC1", "note": "[Example 135, N-{4-[4-amino-6-(methoxymethyl)-7-(morpholin-4-ylmethyl)-pyrrolo[2,1-f][1,2,4]triazin-5-yl]-2-fluorophenyl}-N′-(4-tert-butylpyridin-2-yl)urea]", "IC50": "< 10"},
      {"compound": "CC(=O)c1c(-c2ccc(NC(=O)Nc3cc(C(F)(F)F)ccc3F)cc2)c2c(N)ncnn2c1CN1CCOCC1", "note": "[Example 105, N-4-[6-acetyl-4-amino-7-(morpholin-4-ylmethyl)pyrrolo[2,1-f][1,2,4]triazin-5-yl]phenyl-N′-[2-fluoro-5-(trifluoromethyl)phenyl]urea]", "IC50": "< 10"},
      {"compound": "Nc1ncnn2c(CN3CCOCC3)c(/C=N/O)c(-c3ccc(NC(=O)Nc4cc(C(F)(F)F)ccc4F)cc3)c12", "note": "[Example 102, N-4-[4-amino-6-[(E)-(hydroxyimino)methyl]-7-(morpholin-4-ylmethyl)pyrrolo[2,1-f][1,2,4]triazin-5-yl]phenyl-N′-[2-fluoro-5-(trifluoromethyl)phenyl]urea]", "IC50": "< 10"},
      {"compound": "COCc1c(-c2ccc(NC(=O)Nc3cc(C(F)(F)F)ccc3F)cc2)c2c(N)ncnn2c1CN1CCN(C(C)=O)CC1", "note": "[Example 21, N-{4-[7-[(4-acetylpiperazin-1-yl)methyl]-4-amino-6-(methoxymethyl)pyrrolo[2,1-f][1,2,4]triazin-5-yl]phenyl}-N′-[2-fluoro-5-(trifluoromethyl)phenyl]urea]", "IC50": "10 to 100"},
      {"compound": "N#CCc1c(-c2ccc(NC(=O)Nc3cc(C(F)(F)F)ccc3F)cc2)c2c(N)ncnn2c1CN1CCNC(=O)C1", "note": "[Example 70, N-(4-{4-amino-6-(cyanomethyl)-7-[(3-oxopiperazin-1-yl)methyl]pyrrolo[2,1-f][1,2,4]triazin-5-yl}phenyl)-N′-[2-fluoro-5-(trifluoromethyl)phenyl]urea]", "IC50": "< 10"},
      {"compound": "CCOC(=O)c1c(-c2ccc(NC(=O)Nc3cc(C(F)(F)F)ccn3)cc2)c2c(N)ncnn2c1-c1cccc(F)c1", "note": "[Example 1, Ethyl 4-amino-7-(3-fluorophenyl)-5-{4-[({[4-(trifluoromethyl)pyridin-2-yl]amino}carbonyl)amino]phenyl}-pyrrolo[2,1-f][1,2,4]triazine-6-carboxylate]", "IC50": "10 to 100"},
      {"compound": "COCc1c(-c2ccc(NC(=O)Nc3cc(C(F)(F)F)ccn3)cc2)c2c(N)ncnn2c1CN1CCN(C(C)=O)CC1", "note": "[Example 37, N-4-[7-[(4-acetylpiperazin-1-yl)methyl]-4-amino-6-(methoxy-methyl)pyrrolo[2,1-f][1,2,4]triazin-5-yl]phenyl-N′-[4-(trifluoromethyl)pyridin-2-yl]urea]", "IC50": "10 to 100"},
      {"compound": "Cc1c(-c2ccc(NC(=O)Nc3cc(C(F)(F)F)ccc3F)cc2)c2c(N)ncnn2c1CN1CCCOCC1", "note": "[Example 117, N-{4-[4-amino-6-methyl-7-(1,4-oxazepan-4-ylmethyl)pyrrolo[2,1-f][1,2,4]triazin-5-yl]phenyl}-N′-[2-fluoro-5-(trifluoromethyl)phenyl]urea]", "IC50": "< 10"},
      {"compound": "COCc1c(-c2ccc(NC(=O)Nc3cc(C(F)(F)F)ccc3F)cc2)c2c(N)ncnn2c1CN1CCCC1", "note": "[Example 14, N-{4-[4-amino-6-(methoxymethyl)-7-(pyrrolidin-1-ylmethyl)pyrrolo[2,1-f][1,2,4]triazin-5-yl]phenyl}-N′-[2-fluoro-5-(trifluoromethyl)phenyl]urea]", "IC50": "10 to 100"},
      {"compound": "CON(C)C(=O)c1c(-c2ccc(NC(=O)Nc3cc(C(F)(F)F)ccn3)cc2)c2c(N)ncnn2c1CN1CCOCC1", "note": "[Example 97, 4-amino-N-methoxy-N-methyl-7-(morpholin-4-ylmethyl)-5-{4-[({[4-(trifluoromethyl)pyridin-2-yl]amino}carbonyl)-amino]phenyl}pyrrolo[2,1-f][1,2,4]triazine-6-carboxamide]", "IC50": "> 100"},
      {"compound": "Cc1cc(-c2c(C)c(CN3CCCOCC3)n3ncnc(N)c23)ccc1NC(=O)Nc1cc(C(F)(F)F)ccn1", "note": "[Example 124, N-{4-[4-amino-6-methyl-7-(1,4-oxazepan-4-ylmethyl)pyrrolo[2,1-f][1,2,4]triazin-5-yl]-2-methylphenyl}-N′-[4-(trifluoromethyl)pyridin-2-yl]urea]", "IC50": "< 10"}
    ]},
    {"target": "T1, FGFR1-GST", "test": "FGFR-1 TR-FRET biochemical assay", "conditions": "upper bound in μM", "protocol": "as §1, §2", "units": {"IC50": "nM"}, "values": [
      {"compound": "CON(C)C(=O)c1c(-c2ccc(NC(=O)Nc3cc(C(F)(F)F)ccn3)cc2)c2c(N)ncnn2c1CN1CCOCC1", "note": "[Example 97, 4-amino-N-methoxy-N-methyl-7-(morpholin-4-ylmethyl)-5-{4-[({[4-(trifluoromethyl)pyridin-2-yl]amino}carbonyl)-amino]phenyl}pyrrolo[2,1-f][1,2,4]triazine-6-carboxamide]", "IC50": "< 1000"}
    ]}
  ]
}
